The text below walks through data of patent US20240166609A1, “ANTIBACTERIAL COMPOUNDS” (BLACKSMITH MEDICINES, INC., priority 2021, published 2024).

In brackets after ≈: the same amount, converted by molar mass.

What all share (assay): Bacterial susceptibility testing, MIC by broth microdilution (CLSI)
Holding throughout (type): cell-based
On the technique in general: Broth dilution looks for growth in wells or tubes with falling amounts of substance.

The test system of one assay is K. pneumoniae ATCC13883. As to conditions: Klebsiella pneumoniae, 35° C., 18-24 h, read-out: MIC (μg/mL) K. pneumoniae ATCC13883. The protocol:
(§1) Minimal inhibitory concentrations (MIC) were determined by the broth microdilution method in accordance with the Clinical and Laboratory Standards Institute (CLSI) guidelines. In brief, organism suspensions were adjusted to a final inoculum between 3×10^5 and 7×10^5 colony-forming units (CFU)/mL. Drug dilutions and inocula were made in sterile, cation adjusted Mueller-Hinton Broth (Beckton Dickinson). In wells, an inoculum volume of 100 μL was mixed to 2 μL of DMSO with 2-fold serial dilutions of drug. All inoculated microdilution trays were incubated in ambient air at 35° C. for 18-24 h. Following incubation, the lowest concentration of the drug that prevented visible growth (OD600 nm<0.05) was recorded as the MIC. Performance of the assay was monitored by the use of laboratory quality-control strains and compounds with defined MIC spectrum, in accordance with CLSI guidelines

A further assay concerns P. aeruginosa ATCC27835. As to conditions: Pseudomonas aeruginosa, 35° C., 18-24 h, read-out: MIC (μg/mL) P. aeruginosa ATCC27835. The procedure:
as §1

Another assay relates to E. coli ATCC25922. The note with it: Escherichia coli, 35° C., 18-24 h, read-out: MIC (μg/mL) E. coli ATCC25922. The protocol: as §1
A further assay deals with P. aeruginosa 209 PAO1. As to conditions: Pseudomonas aeruginosa, 35° C., 18-24 h, read-out: MIC (μg/mL) P. aeruginosa 209 PAO1. The protocol:
as §1

Regarding `C[C@H](O)c1nccn1[C@@H](C#Cc1ccc(-c2ccc([C@H]3C[C@H](NS(C)(=O)=O)C3)cc2)cc1)CO` [Compound 36, N-((1S,3r)-3-(4′-((S)-4-hydroxy-3-(2-((S)-1-hydroxyethyl)-1H-imidazol-1-yl)but-1-yn-1-yl)-[1,1′-biphenyl]-4-yl)cyclobutyl)methanesulfonamide], the MIC in the assay on K. pneumoniae ATCC13883 was determined as 1 µg/mL (≈ 2.09 µM); in the assay with P. aeruginosa ATCC27835 it was 2 µg/mL (≈ 4.17 µM); with E. coli ATCC25922, 0.25 µg/mL (≈ 0.521 µM); in the assay on P. aeruginosa 209 PAO1 it was 1 µg/mL (≈ 2.09 µM).
As to `C[C@@H](O)c1nccn1[C@H](C#Cc1ccc(-c2ccc(OCC(N)CO)cc2)cc1)CO` (mixture of isomers) [Compound 1, (2R)-4-(4′-(2-amino-3-hydroxypropoxy)-[1,1′-biphenyl]-4-yl)-2-(2-((R)-1-hydroxyethyl)-1H-imidazol-1-yl)but-3-yn-1-ol], the MIC in the assay on K. pneumoniae ATCC13883 is 32 µg/mL (≈ 75.9 µM); in the assay with P. aeruginosa ATCC27835, 1 µg/mL (≈ 2.37 µM); in the assay on E. coli ATCC25922, 8 µg/mL (≈ 19 µM); with P. aeruginosa 209 PAO1 it was 1 µg/mL (≈ 2.37 µM).
Regarding `CC(CNC1CC(c2ccc(-c3ccc(C#C[C@@H](CO)n4ccnc4[C@H](C)O)cc3)cc2)C1)C(=O)O` (stereo partly drawn) [Compound 37, 3-((3-(4′-((S)-4-hydroxy-3-(2-((S)-1-hydroxyethyl)-1H-imidazol-1-yl)but-1-yn-1-yl)-[1,1′-biphenyl]-4-yl)cyclobutyl)amino)-2-methylpropanoic acid], the MIC was found to be 8 µg/mL (≈ 16.4 µM) with K. pneumoniae ATCC13883, 4 µg/mL (≈ 8.2 µM) with P. aeruginosa ATCC27835, 2 µg/mL (≈ 4.1 µM) in the assay with E. coli ATCC25922 and 4 µg/mL (≈ 8.2 µM) in the assay with P. aeruginosa 209 PAO1.
As to `C[C@H](O)c1nccn1[C@@H](C#Cc1ccc(-c2ccc(O[C@@H]3CN(CC#N)C[C@H]3O)cc2)cc1)CO` [Compound 45, 2-((3R,4R)-3-hydroxy-4-((4′-((S)-4-hydroxy-3-(2-((S)-1-hydroxyethyl)-1H-imidazol-1-yl)but-1-yn-1-yl)-[1,1′-biphenyl]-4-yl)oxy)pyrrolidin-1-yl)acetonitrile], the MIC with K. pneumoniae ATCC13883 was 8 µg/mL (≈ 16.9 µM); with P. aeruginosa ATCC27835, 2 µg/mL (≈ 4.23 µM); in the assay on E. coli ATCC25922 it was 16 µg/mL (≈ 33.9 µM); in the assay with P. aeruginosa 209 PAO1 it was 2 µg/mL (≈ 4.23 µM).
Take `C[C@H](O)c1nccn1CC#Cc1ccc(-c2ccc(O[C@@H]3COC[C@H]3O)cc2)cc1` [Compound 42, (3R,4R)-4-((4′-(3-(2-((S)-1-hydroxyethyl)-1H-imidazol-1-yl)prop-1-yn-1-yl)-[1,1′-biphenyl]-4-yl)oxy)tetrahydrofuran-3-ol]: the MIC was determined as 0.5 µg/mL (≈ 1.24 µM) with K. pneumoniae ATCC13883, 2 µg/mL (≈ 4.94 µM) in the assay with P. aeruginosa ATCC27835, 0.5 µg/mL (≈ 1.24 µM) in the assay on E. coli ATCC25922 and 2 µg/mL (≈ 4.94 µM) in the assay with P. aeruginosa 209 PAO1.
Turning to `C[C@H](O)c1nccn1[C@@H](C#Cc1ccc(-c2ccc(C3CC(NCCC#N)C3)cc2)cc1)CO` (stereo partly drawn) [Compound 32, 3-((3-(4′-((S)-4-hydroxy-3-(2-((S)-1-hydroxyethyl)-1H-imidazol-1-yl)but-1-yn-1-yl)-[1,1′-biphenyl]-4-yl)cyclobutyl)amino)propanenitrile], the values for the MIC in the assay with K. pneumoniae ATCC13883, in the assay with P. aeruginosa ATCC27835 and in the assay with P. aeruginosa 209 PAO1 were 0.5 µg/mL (≈ 1.1 µM), 4 µg/mL (≈ 8.8 µM) and 1 µg/mL (≈ 2.2 µM), respectively.
As for `C[C@H](O)c1nccn1[C@@H](C#Cc1ccc(-c2ccc(C3CC(O)C3)cc2)cc1)CO` (stereo partly drawn) [Compound 30, 3-(4′-((S)-4-hydroxy-3-(2-((S)-1-hydroxyethyl)-1H-imidazol-1-yl)but-1-yn-1-yl)-[1,1′-biphenyl]-4-yl)cyclobutan-1-ol], the MIC in the assay on K. pneumoniae ATCC13883 was 0.5 µg/mL (≈ 1.24 µM); with P. aeruginosa ATCC27835, 2 µg/mL (≈ 4.97 µM); in the assay on P. aeruginosa 209 PAO1 it was 0.5 µg/mL (≈ 1.24 µM).
Regarding `C[C@H](O)c1nccn1[C@@H](C#Cc1ccc(-c2ccc(COCC(N)CO)cc2)cc1)CO` (mixture of isomers) [Compound 6, (2S)-4-(4′-((2-amino-3-hydroxypropoxy)methyl)-[1,1′-biphenyl]-4-yl)-2-(2-((S)-1-hydroxyethyl)-1H-imidazol-1-yl)but-3-yn-1-ol], the MIC with K. pneumoniae ATCC13883 is 32 µg/mL (≈ 73.5 µM); in the assay on P. aeruginosa ATCC27835 it was 4 µg/mL (≈ 9.18 µM); in the assay with E. coli ATCC25922, 16 µg/mL (≈ 36.7 µM); with P. aeruginosa 209 PAO1 it was 2 µg/mL (≈ 4.59 µM).
Take `C[C@H](O)c1nccn1[C@@H](C#Cc1ccc(-c2ccc(O[C@@H]3C[C@H]3N)cc2)cc1)CO` (racemic) [Compound 4, (S)-4-(4′-((trans)-2-aminocyclopropoxy)-[1,1′-biphenyl]-4-yl)-2-(2-((S)-1-hydroxyethyl)-1H-imidazol-1-yl)but-3-yn-1-ol]: the MIC in the assay with K. pneumoniae ATCC13883 is 0.5 µg/mL (≈ 1.24 µM); in the assay on P. aeruginosa ATCC27835, 2 µg/mL (≈ 4.96 µM); in the assay on E. coli ATCC25922, 0.25 µg/mL (≈ 0.62 µM); with P. aeruginosa 209 PAO1, 2 µg/mL (≈ 4.96 µM).
Regarding `C[C@H](O)c1nccn1[C@@H](C#Cc1ccc(-c2ccc(O[C@H]3COC[C@@H]3O)cc2)cc1)CO` (racemic) [Compound 46, (cis)-4-((4′-((S)-4-hydroxy-3-(2-((S)-1-hydroxyethyl)-1H-imidazol-1-yl)but-1-yn-1-yl)-[1,1′-biphenyl]-4-yl)oxy)tetrahydrofuran-3-ol], the MIC in the assay with K. pneumoniae ATCC13883 was determined as 2 µg/mL (≈ 4.6 µM); in the assay with P. aeruginosa ATCC27835, 2 µg/mL (≈ 4.6 µM); in the assay on E. coli ATCC25922, 1 µg/mL (≈ 2.3 µM); with P. aeruginosa 209 PAO1, 1 µg/mL (≈ 2.3 µM).
Turning to `C[C@H](O)c1nccn1[C@@H](C#Cc1ccc(-c2ccc(C3CC(NCc4ncon4)C3)cc2)cc1)CO` (stereo partly drawn) [Compound 29, (S)-4-(4′-(3-(((1,2,4-oxadiazol-3-yl)methyl)amino)cyclobutyl)-[1,1′-biphenyl]-4-yl)-2-(2-((S)-1-hydroxyethyl)-1H-imidazol-1-yl)but-3-yn-1-ol], the MIC was 0.5 µg/mL (≈ 1.03 µM) with K. pneumoniae ATCC13883, 2 µg/mL (≈ 4.14 µM) in the assay with P. aeruginosa ATCC27835 and 2 µg/mL (≈ 4.14 µM) with P. aeruginosa 209 PAO1.
In the case of `C[C@H](O)c1nccn1[C@@H](C#Cc1ccc(-c2ccc(C3CC(N[C@H]4COC[C@@H]4O)C3)cc2)cc1)CO` (stereo partly drawn) [Compound 38, (3R,4S)-4-((3-(4′-((S)-4-hydroxy-3-(2-((S)-1-hydroxyethyl)-1H-imidazol-1-yl)but-1-yn-1-yl)-[1,1′-biphenyl]-4-yl)cyclobutyl)amino)tetrahydrofuran-3-ol], the MIC in the assay with K. pneumoniae ATCC13883 turned out to be 8 µg/mL (≈ 16.4 µM); in the assay with P. aeruginosa ATCC27835 it was 4 µg/mL (≈ 8.2 µM); with E. coli ATCC25922, 2 µg/mL (≈ 4.1 µM); in the assay on P. aeruginosa 209 PAO1, 4 µg/mL (≈ 8.2 µM).
As to `C[C@H](O)c1nccn1[C@H](C#Cc1ccc(-c2ccc(OC[C@@H](N)CO)cc2)cc1)CO` [Compound 2, (R)-4-(4′-((S)-2-amino-3-hydroxypropoxy)-[1,1′-biphenyl]-4-yl)-2-(2-((S)-1-hydroxyethyl)-1H-imidazol-1-yl)but-3-yn-1-ol], the MIC is 16 µg/mL (≈ 38 µM) with K. pneumoniae ATCC13883, 2 µg/mL (≈ 4.74 µM) in the assay with P. aeruginosa ATCC27835, 8 µg/mL (≈ 19 µM) in the assay on E. coli ATCC25922 and 2 µg/mL (≈ 4.74 µM) with P. aeruginosa 209 PAO1.
`C[C@H](O)c1nccn1CC#Cc1ccc(-c2ccc(C3CC(NCC(=O)O)C3)cc2)cc1` (stereo partly drawn) [Compound 26, (S)-(3-(4′-(3-(2-(1-hydroxyethyl)-1H-imidazol-1-yl)prop-1-yn-1-yl)-[1,1′-biphenyl]-4-yl)cyclobutyl)glycine]: the MIC in the assay with K. pneumoniae ATCC13883, in the assay on P. aeruginosa ATCC27835 and in the assay on P. aeruginosa 209 PAO1 was 4 µg/mL (≈ 9.31 µM) in each case.
Consider `COCCN1C[C@@H](O)[C@H](Oc2ccc(-c3ccc(C#C[C@@H](CO)n4ccnc4[C@H](C)O)cc3)cc2)C1` [Compound 44, (3R,4R)-4-((4′-((S)-4-hydroxy-3-(2-((S)-1-hydroxyethyl)-1H-imidazol-1-yl)but-1-yn-1-yl)-[1,1′-biphenyl]-4-yl)oxy)-1-(2-methoxyethyl)pyrrolidin-3-ol], for which the MIC in the assay on K. pneumoniae ATCC13883 was 4 µg/mL (≈ 8.14 µM); in the assay on P. aeruginosa ATCC27835, 4 µg/mL (≈ 8.14 µM); in the assay on E. coli ATCC25922 it was 2 µg/mL (≈ 4.07 µM); in the assay with P. aeruginosa 209 PAO1, 4 µg/mL (≈ 8.14 µM).
As for `C[C@H](O)c1nccn1[C@@H](C#Cc1ccc(-c2ccc(C3CC(NCC#N)C3)cc2)cc1)CO` (stereo partly drawn) [Compound 28, 2-((3-(4′-((S)-4-hydroxy-3-(2-((S)-1-hydroxyethyl)-1H-imidazol-1-yl)but-1-yn-1-yl)-[1,1′-biphenyl]-4-yl)cyclobutyl)amino)acetonitrile], the MIC was determined as 0.5 µg/mL (≈ 1.13 µM) in the assay on K. pneumoniae ATCC13883, 4 µg/mL (≈ 9.08 µM) in the assay on P. aeruginosa ATCC27835 and 2 µg/mL (≈ 4.54 µM) in the assay on P. aeruginosa 209 PAO1.
In the case of `C[C@H](O)c1nccn1[C@@H](C#Cc1ccc(-c2ccc(C3CC(NC(C#N)CO)C3)cc2)cc1)CO` (stereo partly drawn) [Compound 33, 3-hydroxy-2-((3-(4′-((S)-4-hydroxy-3-(2-((S)-1-hydroxyethyl)-1H-imidazol-1-yl)but-1-yn-1-yl)-[1,1′-biphenyl]-4-yl)cyclobutyl)amino)propanenitrile], the MIC in the assay with K. pneumoniae ATCC13883 worked out at 4 µg/mL (≈ 8.5 µM); with P. aeruginosa ATCC27835 it was 2 µg/mL (≈ 4.25 µM); in the assay with P. aeruginosa 209 PAO1, 2 µg/mL (≈ 4.25 µM).
For `C[C@H](O)c1nccn1CC#Cc1ccc(-c2ccc(C3CC(NCC(=N)N)C3)cc2)cc1` (stereo partly drawn) [Compound 25, (S)-2-((3-(4′-(3-(2-(1-hydroxyethyl)-1H-imidazol-1-yl)prop-1-yn-1-yl)-[1,1′-biphenyl]-4-yl)cyclobutyl)amino)acetimidamide], the MIC with K. pneumoniae ATCC13883 came to 0.5 µg/mL (≈ 1.17 µM); with P. aeruginosa ATCC27835, 4 µg/mL (≈ 9.36 µM); in the assay on P. aeruginosa 209 PAO1 it was 2 µg/mL (≈ 4.68 µM).
For `C[C@H](O)c1nccn1[C@@H](C#Cc1ccc(-c2ccc(C3CC(NCC(F)F)C3)cc2)cc1)CO` (stereo partly drawn) [Compound 31, (S)-4-(4′-(3-((2,2-difluoroethyl)amino)cyclobutyl)-[1,1′-biphenyl]-4-yl)-2-(2-((S)-1-hydroxyethyl)-1H-imidazol-1-yl)but-3-yn-1-ol] the same measures were 0.25 µg/mL (≈ 0.537 µM), 4 µg/mL (≈ 8.59 µM) and 2 µg/mL (≈ 4.3 µM).
The matching figures for `C[C@H](O)c1nccn1CC#Cc1ccc(-c2ccc(C3CC(NCc4cocn4)C3)cc2)cc1` (stereo partly drawn) [Compound 27, (S)-1-(1-(3-(4′-(3-((oxazol-4-ylmethyl)amino)cyclobutyl)-[1,1′-biphenyl]-4-yl)prop-2-yn-1-yl)-1H-imidazol-2-yl)ethan-1-ol]: 0.5 µg/mL (≈ 1.1 µM), 4 µg/mL (≈ 8.84 µM) and 2 µg/mL (≈ 4.42 µM).
